Data: patent publication US8981091B2, “Pest control composition” (Sumitomo Chemical Company, Limited, priority 2011, dated 2015)

Experiments:
Assay type in all cases: in vivo
Tetranychus urticae [1] = experiment: Test Example 2: foliar spray on kidney bean leaves carrying Tetranychus urticae adults, insect death rate; details: etoxazole 0.8 ppm alone, 3 days after treatment
Protocol: (§1) Kidney beans (Nagauzura saitou) were planted (one plant per container) in plastic containers (volume: 90 ml) and grown until the primary leaves had fully expanded. Only one leaf of each kidney bean plant was left on the plant and all the other leaves were removed from the plant. Then, 10 adults of Tetranychus urticae were released on each leaf.
(§2) A suspension concentrate containing 10.0% by weight of etoxazole [product name: Baroque (registered trademark) flowable, manufactured by Kyoyu Agri Co., Ltd.] was diluted with water containing 0.02% by volume of a spreading agent [product name: Sindain (registered trademark), manufactured by Sumitomo Chemical Co., […]
(§3) A reference standard containing 99.9% by weight of fenazaquin was diluted with water containing 0.02% by volume of a spreading agent [product name: Sindain (registered trademark), manufactured by Sumitomo Chemical Co., Ltd.] so that the concentration of fenazaquin became 50 ppm. […]
Four days after the release of the insects, each test solution was sprayed onto the leaves of kidney bean plants and the leaves were air-dried. […] An insect death rate was calculated according to the following equation. […]

Bemisia tabaci = experiment: Test Example 3: spray on cabbage seedlings carrying Bemisia tabaci, insect death rate; details: 2 days after treatment
Protocol: Cabbages (Green ball) were planted (one plant per container) in plastic containers (volume: 90 ml) and grown until the third to fourth leaf stage. Only one leaf of each cabbage plant was left on the plant and all the other leaves were removed from the plant. The plastic containers were put into a net cage containing a lot of living Bemisia tabaci and allowed to stand for 24 hours. After that, the plastic containers were taken out from the cage and the number of living insects (Bemisia tabaci) on the cabbage seedlings was determined (This is called the “number of insects before treatment”).
A suspension concentrate containing 10.0% by weight of etoxazole [product name: Baroque (registered trademark) flowable, manufactured by Kyoyu Agri Co., Ltd.] was diluted with water containing 0.02% by volume of a spreading agent [product name: Sindain (registered trademark), manufactured by Sumitomo Chemical Co., Ltd.] so that the concentration of etoxazole became 800 ppm.
A reference standard containing 99.9% by weight of fenazaquin was diluted with water containing 0.02% by volume of a spreading agent [product name: Sindain (registered trademark), manufactured by Sumitomo Chemical Co., Ltd.] so that the concentration of fenazaquin became 50 ppm.
The water dilution of etoxazole, the water dilution of fenazaquin, and water containing 0.02% by volume of a spreading agent [product name: Sindain (registered trademark), manufactured by Sumitomo Chemical Co., Ltd.] were mixed to prepare a test solution with a predetermined concentration of etoxazole and/or fenazaquin.
Then, each test solution was sprayed onto the plastic containers to sufficiently soak cabbage seedlings, and allowed to stand for room temperature (about 25° C.). Two days after the treatment, the number of living insects (Bemisia tabaci) on the cabbage seedlings was determined (This is called the “number of insects after treatment”).
An insect death rate was calculated according to the following equation. For each treatment there are duplicates. […]

Tetranychus urticae [2] = experiment: Test Example 1: foliar spray on kidney bean leaves carrying Tetranychus urticae adults, insect death rate; details: etoxazole 0.000781 ppm alone, 2 days after treatment
Protocol: as §1, with “5” for “10”
as §2, §3
Three days after the release of the insects, each test solution was sprayed onto the leaves of kidney bean plants and the leaves were air-dried. […] An insect death rate was calculated according to the following equation. […]

CCOc1cc(C(C)(C)C)ccc1C1COC(c2c(F)cccc2F)=N1 (centres unmarked) [Etoxazole, 2-(2,6-difluorophenyl)-4-[4-(1,1-dimethylethyl)-2-ethoxyphenyl]-4,5-dihydrooxazole]
Insect death rate (%) (Tetranychus urticae [1]): 15% | Insect death rate (%) (Bemisia tabaci; etoxazole 50 ppm alone): 15% | Insect death rate (%) (Bemisia tabaci; etoxazole 200 ppm alone): 17% | Insect death rate (%) (Bemisia tabaci; etoxazole 800 ppm alone): 32% | Insect death rate (%) (Tetranychus urticae [2]): 10%
